Laboratory results as given in patent US20230346792A1, “COMPOSITIONS AND METHODS FOR TREATING LUNG INFLAMMATION” (Hoth Therapeutics, Inc., priority 2020, published 2023).

Assays:
[1] = tested on: nociception induced by capsaicin (TRPV1) or AITC (TRPA1); conditions: capsaicin (via TRPV1) or AITC (via TRPA1), rat peritoneum; cited from earlier work
[2] = in vivo; cited from earlier work
Covid-19 patients = assay: Randomized double-blind placebo-controlled clinical study of aprepitant injectable emulsion in Covid-19 positive patients; assay type: in vivo, human; conditions: aprepitant injectable emulsion (e.g., Cinvanti) daily (QD), 14 days, comparator saline placebo, including severe to critical patients
Description: One group of patients receives saline placebo daily for a desirable period of time (e.g., 14 days) with normal management and care, and the other group of patients receives aprepitant injectable emulsion (e.g., Cinvanti®) daily (QD) during the same period of time (e.g., 14 days).

[3] = tested on: NSCLC squamous cell carcinoma; conditions: one patient with history of COPD and NSCLC squamous cell carcinoma; aprepitant combined with radiotherapy; cited from earlier work
NK1R = target: T1, NK1R (Rattus norvegicus, UniProt P14600); conditions: asthma model; cited from earlier work
T1 construct: host or cells: living animal of an asthma model (endogenous receptor)
T1 sequence (P14600 whole entry): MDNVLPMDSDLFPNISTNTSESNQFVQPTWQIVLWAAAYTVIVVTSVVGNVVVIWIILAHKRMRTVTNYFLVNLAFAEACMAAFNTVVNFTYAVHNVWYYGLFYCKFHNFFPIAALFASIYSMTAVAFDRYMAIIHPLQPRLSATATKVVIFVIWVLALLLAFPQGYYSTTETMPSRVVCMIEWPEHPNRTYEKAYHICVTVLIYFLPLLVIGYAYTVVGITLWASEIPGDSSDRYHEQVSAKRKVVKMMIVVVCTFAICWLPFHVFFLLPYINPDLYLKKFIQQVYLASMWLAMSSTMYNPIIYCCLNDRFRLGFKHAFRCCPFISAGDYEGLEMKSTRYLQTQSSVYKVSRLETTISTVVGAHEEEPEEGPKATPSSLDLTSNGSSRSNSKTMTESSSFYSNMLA

Neurokinin-1 receptor = target: T2, Neurokinin-1 receptor (Homo sapiens, UniProt P25103); conditions: lung cancer; cited from earlier work
T2 construct: host or cells: treated subjects (endogenous receptor)
T2 sequence (P25103 whole entry): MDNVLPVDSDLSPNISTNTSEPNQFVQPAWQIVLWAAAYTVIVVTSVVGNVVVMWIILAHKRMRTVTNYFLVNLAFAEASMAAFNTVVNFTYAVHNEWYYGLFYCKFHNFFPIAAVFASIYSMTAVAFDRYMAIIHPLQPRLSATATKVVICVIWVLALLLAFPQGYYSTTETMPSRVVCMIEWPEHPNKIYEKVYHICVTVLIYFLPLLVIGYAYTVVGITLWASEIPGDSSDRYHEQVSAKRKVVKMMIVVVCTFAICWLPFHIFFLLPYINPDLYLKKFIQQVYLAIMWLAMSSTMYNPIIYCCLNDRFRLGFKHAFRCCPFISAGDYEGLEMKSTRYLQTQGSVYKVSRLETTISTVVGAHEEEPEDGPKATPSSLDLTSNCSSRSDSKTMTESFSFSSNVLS

Compound | nociception induced by capsaicin or AITC [1] | adverse effects of chronic treatment [2] | effectiveness in treating Covid-19 patients versus placebo (Covid-19 patients) | treatment outcome of lung cancer patient [3] | lung inflammation and inflammatory cytokines (NK1R) | cough frequency (Neurokinin-1 receptor)
C=C(C)[C@]12C[C@@H](C)[C@@]34O[C@](Cc5ccccc5)(O[C@@H]1[C@@H]3C=C(COC(=O)Cc1ccc(O)c(OC)c1)C[C@]1(O)C(=O)C(C)=C[C@@H]41)O2 [resiniferatoxin] | able to reduce nociception |  |  |  |  | 
C#Cc1cccc(Nc2ncnc3cc(OCCOC)c(OCCOC)cc23)c1 [erlotinib] |  | induces hypomagnesemia, thereby triggering SP-mediated oxidative/inflammation stress and mild-to-moderate cardiac dysfunction |  |  |  | 
C[C@@H](O[C@H]1OCCN(Cc2nc(=O)[nH][nH]2)[C@H]1c1ccc(F)cc1)c1cc(C(F)(F)F)cc(C(F)(F)F)c1 [aprepitant] | able to reduce nociception |  | more effective in treating Covid-19 patients | successfully treated | reduced lung inflammation and inflammatory cytokines | reduction in cough frequency
